This passage reports Activity results from ChEMBL document CHEMBL1159007, “Isolation and identification of xochitloldione and isoxochitlolone from Cnidosculus urens” (J Nat Prod, 1992).

The test system of one test is Staphylococcus aureus. The experiment in a line: Antimicrobial activity against Staphylococcus aureus. The format is functional, organism-based.
The subject of another test is Escherichia coli. The experiment in a line: Antimicrobial activity against Escherichia coli. The format is functional, organism-based.

Calls of active or inactive are those of the source. The rule behind the calls is not given here.

For the molecule `Cc1cc2c(cc1O)C=C1C=CCC(C)(C)[C@@H]1CC2=O`, the outcome in the test on Staphylococcus aureus and in the test on Escherichia coli was Active.
